{
  "source": "paper PMC11299021",
  "about": "“Machine learning-assisted substrate binding pocket engineering based on structural information” (Briefings in Bioinformatics, 2024)",
  "target": "T1, KvAP (Klebsiella variicola acid phosphatase) (Klebsiella variicola, UniProt B5XS64)",
  "T1 construct": "gene KPK_3238; synthetic gene in pET-22b (NdeI/BlpI), E. coli BL21(DE3); His-Trap and Superdex 75 purified",
  "T1 sequence (B5XS64 20-248)": "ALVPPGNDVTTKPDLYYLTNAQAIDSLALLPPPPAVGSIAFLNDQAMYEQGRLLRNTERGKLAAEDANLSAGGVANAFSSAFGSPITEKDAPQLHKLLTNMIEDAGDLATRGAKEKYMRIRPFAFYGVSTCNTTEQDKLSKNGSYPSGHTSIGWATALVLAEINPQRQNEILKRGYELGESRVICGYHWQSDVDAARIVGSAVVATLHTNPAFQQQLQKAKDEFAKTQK",
  "assay": "p-nitrophenol release at […] nm (specific activity)",
  "assay_type": "biochemical",
  "details": "200 mM p-NPP disodium salt, 50 mM acetate pH 5.0, 37 °C, 20 min",
  "data": [
    {"molecule": "O=[N+]([O-])c1ccc(OP(=O)(O)O)cc1", "note": "[p-NPP]", "values": [
      {"measurement": "p-nitrophenol release at 405 nm (specific activity)", "result": "The purified enzyme was used for measuring its activity against nitrophenyl phosphate (p-NPP)"}
    ]}
  ]
}
